Laboratory results published in article PMC3526545, “New perspectives for natural antimicrobial peptides: application as antinflammatory drugs in a murine model” (BMC Immunology, 2012).
Several values for one entry are separate records, joined by “and”; a condition that tells them apart may be missing. Identical values can stand only once.

What was measured:
[1] = test system: Staphylococcus epidermidis strains; test: Antibacterial activity of AMPs (MIC100) and synergism (FIC index); type: cell-based; conditions: against Staphylococcus epidermidis strains, single agent
Method: (§1) Antibacterial activity of the peptides used in this work was evaluated as described previously. […] The fractional inhibitory concentration (FIC) index for combinations of two peptides was calculated according to the equation: FIC index = […] = A/MICA + B/MICB , where A and B are the MICs of drug A and drug B in the combination, MICA and MICB are the MICs of drug A and drug B alone, and FICA and FICB are the FICs of drug A and drug B. The FIC indices were interpreted as follows: ≤0.5, synergy; 0.51-4.0, no interaction; > 4.0, antagonism.

J774 cells [2] = test: Nitrite (NO2-) formation in J774 cells, Griess reaction; type: cell-based, mouse
[3] = test system: Staphylococcus epidermidis strains; test: % inhibition of bacterial growth by the MIX and its components; type: cell-based; conditions: MIX = both
Method: as §1, with “antagonism. The growth inhibition percentages of Staphylococcus epidermidis and probiotic strains were assessed under the same conditions.” for “antagonism.”

[4] = test system: Staphylococcus epidermidis strains; test: Antibiotic susceptibility, disk diffusion method on Mueller-Hinton agar; type: cell-based; conditions: all 10 Staphylococcus epidermidis strains
J774 cells [5] = test: TNF-α, IFN-γ, IL-10 mRNA expression in J774 cells (real time PCR); type: cell-based, mouse; conditions: gentamicin 5 μg/ml, ASA 5 μg/ml or MIX (RJI-C 9 μg/ml + TB-KK 6 μg/ml) for 3 hours; Figure 3B
[6] = test system: Staphylococcus epidermidis (SE); conditions: mouse, in vivo, iv
[7] = test system: Staphylococcus epidermidis (SE); conditions: mouse, in vivo, iv; remark: listed apart in the source
[8] = test system: SAA, haptoglobin, fibrinogen; test: Acute phase proteins in blood of infected mice; type: in vivo, mouse
CD64 = conditions: mouse, in vivo
COX-2 = conditions: mouse, in vivo
[9] = test system: probiotics bacteria (Lactobacillus plantarum, Lactobacillus Paracasei, Bifidobacterium animalis); test: Antibacterial activity against probiotics bacteria, overall statement; type: cell-based; conditions: MIX RJI-C 9 μg/ml + TB-KK 6 μg/ml; gentamicin 5 μg/ml
Method: The growth inhibition percentages of Staphylococcus epidermidis and probiotic strains were assessed under the same conditions.

PFKIDIHLGGY-NH2 [RJI-C, analogue of the royal jellein I, chemically modified at the C terminal]
MIC100 ([1]; 10^5 CFU/well): 30 µg/mL | MIC ([1]; value in brackets): 24 µM | NO2- synthesis in LPS-stimulated J774 cells, in words (J774 cells [2]): reduced NO2^- synthesis | % inhibition of bacterial growth ([3]; strain 2/2, RJI-C 9 μg/ml, TB-KK 6 μg/ml): 18 ± 1% | % inhibition of bacterial growth ([3]; strain 3/28, RJI-C 9 μg/ml (7.3 μM), TB-KK 6 μg/ml (2.6 μM)): 17 ± 2% | % inhibition of bacterial growth ([3]; strain 5/6, RJI-C 9 μg/ml, TB-KK 6 μg/ml): 4 ± 3% | % inhibition of bacterial growth ([3]; strain 5/8, RJI-C 9 μg/ml, TB-KK 6 μg/ml): 12 ± 2% | % inhibition of bacterial growth ([3]; strain 5/25, RJI-C 9 μg/ml, TB-KK 6 μg/ml): 15 ± 1% | % inhibition of bacterial growth ([3]; strain 9/1, RJI-C 9 μg/ml, TB-KK 6 μg/ml): 18 ± 0% | % inhibition of bacterial growth ([3]; strain 10/28, RJI-C 9 μg/ml, TB-KK 6 μg/ml): 0% | % inhibition of bacterial growth ([3]; strain 12/14, RJI-C 9 μg/ml, TB-KK 6 μg/ml): 11 ± 0.5% | % inhibition of bacterial growth ([3]; strain 12/26, RJI-C 9 μg/ml, TB-KK 6 μg/ml): 19 ± 2%

C[C@@H](O)[C@H]1C(=O)N2C(C(=O)O)=C(SCCN=CN)C[C@H]12 [IPM10, imipenem]
antibiotic resistance pattern, all strains [4]: sensitive

CC(=O)Oc1ccccc1C(=O)O [ASA, acetylsalicylic acid]
induction of inflammation (TNF-α, IFN-γ, IL-10 mRNA) in J774 cells without LPS (J774 cells [5]): do not induce inflammation

CNC(C)C1CCC(N)C(OC2C(N)CC(N)C(OC3OCC(C)(O)C(NC)C3O)C2O)O1 (stereo not drawn) [Gentamicin, gentamicin]
MIC ([1]; 10^5 CFU/well): 5 µg/mL | MIC ([1]; value in brackets): 10 µM | induction of inflammation (TNF-α, IFN-γ, IL-10 mRNA) in J774 cells without LPS (J774 cells [5]): do not induce inflammation | infection status of kidneys and spleens eleven days after the infection [6]: still infected | bacterial load of kidneys and spleens [7]: decreased | SAA ([8]; 3h after treatment, blood of mice infected with Staphylococcus epidermidis, naive 6±0.8, control 17±0.6): 20 ± 0.8 mg/dL | SAA ([8]; 6h after treatment, control 19.1±0.5): 18.4 ± 1.2 mg/dL | Haptoglobin ([8]; 6h after treatment, control 329±55.2): 264 ± 58.3 mg/dL | SAA ([8]; 9h after treatment, control 21.7±0.9): 16 ± 0.7 mg/dL | Fibrinogen ([8]; mouse, in vivo): 340 ± 41.0 mg/dL and 385 ± 45.2 mg/dL and 364 ± 12.6 mg/dL | Haptoglobin ([8]; mouse, in vivo): 244 ± 42.5 mg/dL and 278 ± 42.9 mg/dL | SAA, haptoglobin and fibrinogen, in words ([8]; mouse, in vivo): within normal ranges | expression of the CD64 marker in blood (CD64): decreased expression of the CD64 marker | COX-2 expression level in kidney (COX-2): COX-2 expression level returned to the normal level nine hours after the treatment | antibacterial activity against probiotics bacteria, in words [9]: killed the totality of the probiotics tested

Cc1ncc([N+](=O)[O-])n1CCO [M80, metronidazole]
antibiotic resistance pattern, all strains [4]: resistant

C[C@H]1[C@H](NC(=O)/C(=N\OC(C)(C)C(=O)O)c2csc(N)n2)C(=O)N1S(=O)(=O)O [ATM30, aztreonam]
antibiotic resistance pattern, all strains [4]: resistant

bacitracin [B2]
antibiotic resistance pattern, all strains [4]: resistant

Cc1onc(-c2ccccc2Cl)c1C(=O)N[C@@H]1C(=O)N2[C@@H]1SC(C)(C)[C@@H]2C(=O)O [CX1, cloxacillin]
antibiotic resistance pattern, all strains [4]: resistant
